# Experimental data published in EP2830605B1, “A COMBINATION MEDICAMENT COMPRISING PHENYLEPHRINE AND PARACETAMOL” (priority 2013, dated 2014).
# Where a name gives a salt, the structure may show the parent alone. Read-outs that look alike come from different tables or passages of the source.
# Key:
# [1] = in vivo
# [2] = cited from earlier work
compound,measurement,setting,value
"CNC[C@H](O)c1cccc(O)c1 [10 mg phenylephrine hydrochloride, phenylephrine hydrochloride]","Ratio (increase of AUCtot), calculation for paracetamol 650 mg",[1]; human,~1.73
same,dose of phenylephrine hydrochloride alone that is similar,[1],16 to 20 mg
same,Adverse Event Rate,"[2]; dose 10mg, hydrochloride",12.5%
same,Adverse Event Rate,"[2]; dose 10mg, listed as Phenylephrine HCL, hydrochloride",12.5%
same,Adverse Event Rate,[2]; dose 15mg,43.8%
same,Adverse Event Rate,[2]; dose 25mg,81.3%
